Source: paper PMC10179080, “In Vivo and In Vitro Characterization of Close Analogs of Compound KA-11, a New Antiseizure Drug Candidate” (International Journal of Molecular Sciences, 2023)

Experiments:
[1] = tested on: 6-Hz-induced psychomotor seizures in mice; assay: 6 Hz (32 mA) seizure model; assay type: in vivo
Procedure: (§1) The experiments were conducted on adult male albino Swiss mice weighing 22–26 g. The animals were kept in colony cages under standardized laboratory conditions: natural light–dark cycle 12/12 h, temperature 20–24 °C, air humidity 45–65% and free access to tap water and food (chow pellets). After 7 days of adaptation to laboratory conditions, the animals were randomly assigned to experimental groups consisting of 8 mice. The experimental procedures described herein were approved by the Local Ethics Committee in Lublin, Poland (approval numbers: 71/2020 and 13/2021), and were conducted in accordance with EU Directive 2010/63/EU for animal experiments. All efforts were made to minimize animal suffering and to use only the number of animals necessary to produce reliable scientific data according to the 3Rs rule.
(§2) All substances (except PTZ and tetracaine hydrochloride dissolved in water for injections) were suspended in a 1% solution of Tween 80 (Sigma-Aldrich, Saint Louis, MO, USA) in water for injections (Baxter, Warszawa, Poland) or 0.9% NaCl. All drugs were injected intraperitoneally (i.p.) 30 min before all seizure models with 1 mL syringes as a single injection, in a volume of 10 mL/kg. The pretreatment time (30 min) before testing for KA-228 and KA-232 was chosen based on the time to peak of maximum anticonvulsant activity of KA-11 from our previous studies.
The 6-Hz-induced psychomotor seizures in mice were evoked by current (6 Hz, 0.2 ms rectangular pulse width, 32 mA, 3 s duration) generated by an S48 Square Pulse Stimulator and CCU1 Constant Current Unit (Grass Technologies, West Warwick, RI, USA). The animals were administered with increasing doses of KA-228 and KA-232, and the anticonvulsant activity of each drug was evaluated as the ED50. This experimental procedure has been described in detail in our previous studies.
(§3) The ED50 or TD50 values for tested substances in the acute animal models of seizures were calculated using the computer log-probit analysis. Subsequently, the ED50 and TD50 values (±SEM) were statistically analyzed using one-way analysis of variance (ANOVA) followed by the post hoc Dunnett’s test for multiple comparisons. Differences among values were considered statistically significant if p < 0.05. GraphPad Prism version 8 for Windows (GraphPad Software, San Diego, CA, USA) was used as a statistical software program. The results obtained from the acute ivPTZ test and grip strength test were evaluated by a Student’s t test. Fisher’s exact probability test was used to analyze protection from tonic forelimb and hindlimb extension in the ivPTZ test.

CYP2D6 = target: T1, CYP2D6 (Homo sapiens, UniProt P10635); assay: CYP2D6 P450-Glo assay; assay type: in vitro ADME
T1 construct: purchased Promega, Madison, WI, USA
T1 sequence (P10635 whole entry): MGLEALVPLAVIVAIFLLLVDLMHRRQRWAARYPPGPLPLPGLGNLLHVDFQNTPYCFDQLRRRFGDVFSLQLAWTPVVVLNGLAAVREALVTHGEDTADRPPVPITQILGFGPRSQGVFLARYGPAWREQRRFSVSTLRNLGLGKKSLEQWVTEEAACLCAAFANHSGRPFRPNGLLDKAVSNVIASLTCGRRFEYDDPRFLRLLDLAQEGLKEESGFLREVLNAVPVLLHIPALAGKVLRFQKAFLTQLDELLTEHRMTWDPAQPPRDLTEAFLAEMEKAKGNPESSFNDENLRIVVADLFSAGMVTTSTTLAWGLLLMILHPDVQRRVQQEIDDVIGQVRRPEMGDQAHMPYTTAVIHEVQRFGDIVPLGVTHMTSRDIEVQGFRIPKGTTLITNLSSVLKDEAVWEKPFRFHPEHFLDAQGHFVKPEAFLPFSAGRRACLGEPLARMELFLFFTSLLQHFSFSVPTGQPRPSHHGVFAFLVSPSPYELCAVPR
Excerpt: (§4) The assays and protocols used for evaluating the KA-232 ADME-Tox parameters were similar to those described previously for compound KA-11 [6].
(§5) Figure 9 The effect of KA-232 and the reference drug ketoconazole (KE) on CYP3A4 activity (A). The effect of KA-232 and the reference drug quinidine (QD) on CYP2D6 activity (B). The effect of KA-232 and the reference cytostatic drug doxorubicin (DX) on the HepG2 cell line (C) and the SH-SY5Y cell line (D) viability. Statistical significance (* p < 0.05, **** p < 0.0001) was analyzed by Graph Pad Prism 8 software using one-way ANOVA and Bonferroni’s Multiple Comparison Post Test.

[2] = tested on: Calcium Cav1.2 channel (verapamil site, antagonist radioligand); assay: Radioligand binding, Cav1.2 verapamil site; design: species or system rat; settings: 10 µM
Procedure: Dysfunction of both sodium and calcium ion channels is known to be one of the crucial reasons behind the pathogenesis of seizures. Consequently, these ion channels are molecular targets for several clinically important ASDs such as lacosamide, lamotrigine, carbamazepine, oxcarbazepine and compounds currently under preclinical and clinical studies. Thus, for KA-228 and KA-232, we tested herein their binding profile toward the aforementioned ion channels at concentrations of 10 and 100 µM (Table 3). […] Apart from in vitro studies focused on explaining the mechanism of action, KA-232 was additionally tested for its interaction with the potassium channel (hERG) which is recognized as one of the most important ‘off-targets’ responsible for harmful arrhythmogenic activity. Thus, the interaction of potential drug candidates with hERG must be excluded at an early stage of development.
Binding studies were carried out commercially in Eurofins Laboratories (Poitiers, France or New Taipei City, Taiwan).

hepatoma HepG2 = assay: Hepatotoxicity, HepG2 cell viability; assay type: cell-based, human
Excerpt: as §4, §5

[3] = tested on: seizure susceptibility in mice; assay: Timed ivPTZ seizure threshold test; assay type: in vivo
Procedure: as §1
The timed ivPTZ seizure threshold test was carried out according to the method described by Socała et al.. KA-228 and KA-232 were suspended in a 1% solution of Tween 80 and administered i.p. 30 min before the test. In the experiment with KA-232, two separate control groups were used because the effects of KA-232 at a dose of 50 and 100 mg/kg were determined on different days.
as §3
Figure 7 Effects of KA-11, KA-228 and KA-232 on the threshold for the first myoclonic twitch (A), generalized clonus (B) and forelimb tonus (C) in the ivPTZ test in mice. KA-228 and KA-232 were administered i.p., 30 min before seizure induction. Control animals received vehicle. Data are presented as means ± SD (mg/kg PTZ; n = 9–14 animals; the n value varies between groups because some animals were excluded from the study due to unsuccessful catheterization of the vein). The statistical significance for KA-228 and KA-232 was evaluated by a Student’s t test. Data for KA-11 were used from Socała et al. and re-analyzed using one-way ANOVA followed by Dunnett’s post hoc test. * p < 0.05, ** p < 0.01, *** p < 0.001, **** p < 0.0001 vs. the vehicle-treated group (GraphPad Prism 8).

[4] = target: 5-HT1A (agonist radioligand) (Homo sapiens, UniProt P08908); assay: Radioligand binding, 5-HT1A
Chain of 5-HT1A (agonist radioligand) (P08908 whole entry): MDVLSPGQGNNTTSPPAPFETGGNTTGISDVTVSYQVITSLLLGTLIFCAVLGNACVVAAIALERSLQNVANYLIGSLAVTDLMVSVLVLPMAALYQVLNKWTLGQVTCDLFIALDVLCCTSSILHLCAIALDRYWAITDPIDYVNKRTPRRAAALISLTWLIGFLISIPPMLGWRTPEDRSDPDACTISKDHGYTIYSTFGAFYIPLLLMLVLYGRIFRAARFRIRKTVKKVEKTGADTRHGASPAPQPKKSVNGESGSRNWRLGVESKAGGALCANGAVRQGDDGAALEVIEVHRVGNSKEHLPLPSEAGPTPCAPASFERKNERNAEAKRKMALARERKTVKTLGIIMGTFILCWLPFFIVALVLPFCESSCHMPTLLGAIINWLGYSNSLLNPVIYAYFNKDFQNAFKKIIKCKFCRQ

[5] = tested on: PTZ-induced clonic seizures in mice; assay: scPTZ-induced convulsions; assay type: in vivo; settings: i.p.
Procedure: as §1, §2
The PTZ-induced clonic seizures in mice were determined after sc administration of PTZ at a dose of 100 mg/kg. The animals were administered with increasing doses of KA-228 and KA-232, and the anticonvulsant activity of each drug was evaluated as the ED50 value. This experimental procedure has been described in detail in our previous studies.
as §3

[6] = 50 mg/kg i.p., 30 min before ivPTZ

CC(C(=O)N1CCN(c2cccc(C(F)(F)F)c2)CC1)N1C(=O)CC(N(C)C)C1=O.Cl (stereo not shown) [KA-232, 3-(Dimethylamino)-1-(1-oxo-1-(4-(3-(trifluoromethyl)phenyl)piperazin-1-yl)propan-2-yl)pyrrolidine-2,5-dione hydrochloride]
ED50 ([1]; Mus musculus, ip, 30 min before test, read-out: ED50 6 Hz ± SD): 26.5 ± 33.5 mg/kg
TI (TD50/ED50), 6 Hz ([1]; i.p.): 6.14
CYP2D6 activity (% of control ± SD) (CYP2D6; 10 µM): 100.96 ± 2.57 % of control
effect on CYP2D6 activity (CYP2D6; at 0.1 and 1 µM): slight induction
% Inhibition of Control Specific Binding [2]: −2.8 (10) %
HepG2 viability (% of control ± SD) (hepatoma HepG2; 10 µM): 89.44 ± 10.22 % of control
HepG2 cell viability (hepatoma HepG2; 100 µM): approximately 78 % of control
effect on threshold for forelimb tonus [3, 6]: did not significantly affect
effect on threshold for generalized clonus [3, 6]: did not significantly affect
effect on threshold for the first myoclonic twitch [3, 6]: did not significantly affect
mice in which hindlimb tonus did not occur ([3]; 50 mg/kg i.p., p < 0.01 vs. control): 5 out of 9
effect on threshold for clonic seizures ([3]; 100 mg/kg i.p., p < 0.0001): slightly raised
effect on threshold for myoclonic seizures ([3]; 100 mg/kg i.p., p < 0.001): slightly raised
mice in which forelimb tonus was completely abolished ([3]; 100 mg/kg i.p., p < 0.01 vs. control): 7 out of 11
melting point: 141.4 to 143.5 °C
% Inhibition of Control Specific Binding ([4]; 10 µM): did not interact
inhibition at 10 µM ([4]; read-out: % Inhibition of Control Specific Binding): 9.6%
ED50 ([5]; Mus musculus, scPTZ 100 mg/kg, 30 min before test, read-out: ED50 PTZ ± SD): 59.3 ± 78.2 mg/kg
TI (TD50/ED50), PTZ ([5]; scPTZ): 2.75
